The text below walks through data of article PMC7489219 (Molecular Brain, 2020).

The experiment has as its system T1, primary mouse cortical neurons.
T1 construct: primary cortical neurons, DIV 10
As to the kind of experiment: cells. As to conditions: Cortical neurone, 20 h, read-out: % inhibition, inhibition of NMDA-induced cell death (protection score), 30 min pre-treatment. Set-up: Protection from NMDA-induced (30 uM, 10 min) neuronal death; Hoechst nuclear morphology by automated microscopy. In short, it runs like this: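 On DIV 10, primary mouse cortical neurons were given compound at 10 μM for 30 min at 37 °C, then 30 μM NMDA for 10 min, washed, and kept 20 h with compound. Dead cells were scored by nuclear morphology, and % protection was derived from survival relative to vehicle + NMDA and untreated controls.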

Molecules are shown by their SMILES. Counter-ions that a name gives are not always drawn.

For `C=CCc1ccc(O)c(-c2cc(CC=C)ccc2O)c1` [Magnolol], the inhibition at 10 µM was -3.4%.

In the case of `CNCCC[C@]12CC[C@H](c3ccccc31)c1ccccc12` [Maprotiline hydrochloride], the inhibition at 10 µM amounted to 0.000867%. For `Cc1nnc(C(C)C)n1[C@@H]1C[C@H]2CC[C@@H](C1)N2CC[C@H](NC(=O)C1CCC(F)(F)CC1)c1ccccc1` [Maraviroc] the value was 2.4%; for `Cc1ccc(NC(=O)c2ccc(CN3CCN(C)CC3)cc2)cc1Nc1nc(-c2cccnc2)cs1` [Masitinib (AB1010)], -5.13%. For `O=C1CCC[C@@H]2[C@H]3CCCN4CCC[C@@H](CN12)[C@@H]34` [Matrine ((+)-Matrine)] the value was -4.08%. For `CC(=O)O[C@]1(C(C)=O)CC[C@H]2[C@@H]3C=C(C)C4=CC(=O)CC[C@]4(C)[C@H]3CC[C@@]21C` [Megestrol Acetate] the value was -7.04%. As for `S=c1[nH]cnc2nc[nH]c12` [Mercaptopurine], the inhibition at 10 µM is -8.52%. Under `Nc1ccc(O)c(C(=O)O)c1` [Mesalamine (Lialda)] stands 21.8%.

On to `O=S(=O)(O)CCS` [Mesna (Uromitexan, Mesnex)], for which the inhibition at 10 µM was -0.811%.

As for `C#C[C@]1(O)CC[C@H]2[C@@H]3CCc4cc(OC)ccc4[C@H]3CC[C@@]21C` [Mestranol], the inhibition at 10 µM was found to be 11.8%. For `CN(C)C(=N)NC(=N)N` [Metformin hydrochloride (Glucophage)] the value was 10.2%; for `C=C1c2cccc(O)c2C(O)=C2C(=O)[C@]3(O)C(O)=C(C(N)=O)C(=O)[C@@H](N(C)C)[C@@H]3[C@@H](O)[C@H]12` [Methacycline hydrochloride (Physiomycine)], 13.5%; for `Cn1nnc2c(C(N)=O)ncn2c1=O` [Methazolastone], 14.3%. For the molecule `Cn1ccnc1S` [Methimazole (Tapazole, Northyx)], the inhibition at 10 µM was 15.5%. For `COc1ccccc1OCC(O)COC(N)=O` (centres unmarked) [Methocarbamol (Robaxin)] the value was -0.235%; for `COc1c2occc2cc2ccc(=O)oc12` [Methoxsalen (Oxsoralen)], -4.76%. Under `COc1ccc([C@@H]2CC(=O)c3c(O)cc(O[C@@H]4O[C@H](CO[C@@H]5O[C@@H](C)[C@H](O)[C@@H](O)[C@H]5O)[C@@H](O)[C@H](O)[C@H]4O)cc3O2)cc1OC` [Methyl-Hesperidin] stands -2.33%. For the molecule `C[C@H]1C[C@@H]2[C@H]([C@@H](O)C[C@@]3(C)[C@H]2CC[C@]3(O)C(=O)CO)[C@@]2(C)C=CC(=O)C=C12` [Methylprednisolone], the inhibition at 10 µM is 7.52%. Under `Cc1ccccc1N1C(=O)c2cc(S(N)(=O)=O)c(Cl)cc2NC1C` (centres unmarked) [Metolazone (Zaroxolyn)] stands 27.9%. With `CN1CCN2c3ccccc3Cc3ccccc3C2C1` (centres unmarked) [Mianserin hydrochloride], the inhibition at 10 µM was -2.1%. `Cc1[nH]c(=O)c(C#N)cc1-c1ccncc1` [Milrinone (Primacor)]: the inhibition at 10 µM is -10.4%. For `N=c1nc(N2CCCCC2)cc(N)n1O` [Minoxidil] the value was -1.14%; for `CC[C@@]1([C@@H]2O[C@@H]([C@H]3O[C@@](O)(CO)[C@H](C)C[C@@H]3C)C[C@@H]2C)CC[C@H]([C@]2(C)CC[C@]3(C[C@H](O)[C@@H](C)[C@@H]([C@@H](C)[C@@H](OC)[C@H](C)C(=O)O)O3)O2)O1` [Monensin sodium salt (Coban)], 3.22%.

As for `Oc1ccc(OCc2ccccc2)cc1` [Monobenzone (Benoquin)], the inhibition at 10 µM was 49.3%. Under `O=c1c(O)c(-c2ccc(O)cc2O)oc2cc(O)cc(O)c12` [Morin hydrate (Aurantica)] stands -2.71%; under `N=C(N)NC(=N)N1CCOCC1` [Moroxydine], 0.926%. For `COc1c(N2C[C@@H]3CCCN[C@@H]3C2)c(F)cc2c(=O)c(C(=O)O)cn(C3CC3)c12` [Moxifloxacin hydrochloride] the value was 0.0291%; for `COc1c(C)c2c(c(O)c1C/C=C(\C)CCC(=O)OCCN1CCOCC1)C(=O)OC2` [Mycophenolate mofetil (CellCept)], 4.41%; for `COc1c(C)c2c(c(O)c1C/C=C(\C)CCC(=O)O)C(=O)OC2` [Mycophenolic (Mycophenolate)], -10.2%. For `O=c1c(O)c(-c2cc(O)c(O)c(O)c2)oc2cc(O)cc(O)c12` [Myricetin (Cannabiscetin)] the value was -1.08%; for `C[C@@H]1O[C@@H](Oc2c(-c3cc(O)c(O)c(O)c3)oc3cc(O)cc(O)c3c2=O)[C@H](O)[C@H](O)[C@H]1O` [Myricitrin (Myricitrine)], -2.22%. With `COc1ccccc1N1CCN(CC(O)COc2cccc3ccccc23)CC1` (centres unmarked) [Naftopidil (Flivas)], the inhibition at 10 µM is -8.14%. As for `CCn1cc(C(=O)O)c(=O)c2ccc(C)nc21` [Nalidixic acid (NegGram)], the inhibition at 10 µM is -2.4%.

As to `c1ccc2c(CC3=NCCN3)cccc2c1` [Naphazoline hydrochloride (Naphcon)], the inhibition at 10 µM is -0.842%.

As to `O=C1C[C@@H](c2ccc(O)cc2)Oc2cc(O)cc(O)c21` [Naringenin], the inhibition at 10 µM was -3.44%.

Turning to `C[C@@H]1O[C@@H](O[C@H]2[C@H](Oc3cc(O)c4c(c3)O[C@H](c3ccc(O)cc3)CC4=O)O[C@H](CO)[C@@H](O)[C@@H]2O)[C@H](O)[C@H](O)[C@H]1O` [Naringin (Naringoside)], the inhibition at 10 µM was -0.553%. For the molecule `C[C@@H]1O[C@@H](O[C@H]2[C@H](Oc3cc(O)c(C(=O)CCc4ccc(O)cc4)c(O)c3)O[C@H](CO)[C@@H](O)[C@@H]2O)[C@H](O)[C@H](O)[C@H]1O` [Naringin Dihydrochalcone (Naringin DC)], the inhibition at 10 µM worked out at 7.97%. `C[C@@H]1C/C=C/C=C/C=C/C=C/[C@H](O[C@@H]2O[C@H](C)[C@@H](O)[C@H](N)[C@@H]2O)C[C@@H]2O[C@](O)(C[C@@H](O)C[C@H]3O[C@@H]3/C=C/C(=O)O1)C[C@H](O)[C@H]2C(=O)O` [Natamycin (Pimaricin)]: the inhibition at 10 µM was -0.639%. Under `CC(C)[C@H]1CC[C@H](C(=O)N[C@H](Cc2ccccc2)C(=O)O)CC1` [Nateglinide (Starlix)] stands 42.4%; under `O[C@@H](CNC[C@H](O)[C@H]1CCc2cc(F)ccc2O1)[C@@H]1CCc2cc(F)ccc2O1` [Nebivolol (Bystolic)], -2.64%. Under `Cc1cccc(C)c1NC(=O)CN1CCCC1=O` [Nefiracetam (Translon)] stands 7.17%.

With `COc1nc(N)nc2c1ncn2[C@@H]1O[C@H](CO)[C@@H](O)[C@@H]1O` [Nelarabine (Arranon)], the inhibition at 10 µM is -9.06%. Under `COc1ccc(CCC(=O)c2c(O)cc(O[C@@H]3O[C@H](CO)[C@@H](O)[C@H](O)[C@H]3O[C@@H]3O[C@@H](C)[C@H](O)[C@@H](O)[C@H]3O)cc2O)cc1O` [Neohesperidin dihydrochalcone (Nhdc)] stands -3.39%; under `COc1ccc([C@@H]2CC(=O)c3c(O)cc(O[C@@H]4O[C@H](CO)[C@@H](O)[C@H](O)[C@H]4O[C@@H]4O[C@@H](C)[C@H](O)[C@@H](O)[C@H]4O)cc3O2)cc1O` [Neohesperidin], 4.46%; under `NC[C@@H]1O[C@H](O[C@H]2[C@@H](O)[C@H](O[C@@H]3[C@@H](O)[C@H](N)C[C@H](N)[C@H]3O[C@H]3O[C@H](CN)[C@@H](O)[C@H](O)[C@H]3N)O[C@@H]2CO)[C@H](N)[C@@H](O)[C@@H]1O` [Neomycin sulfate], -1.47%. Under `CN(C)C(=O)Oc1cccc([N+](C)(C)C)c1` [Neostigmine bromide (Prostigmin)] stands -0.504%. For the molecule `NC(=O)Cc1cccc(C(=O)c2ccccc2)c1N` [Nepafenac], the inhibition at 10 µM is -12.2%. With `Cc1ccnc2c1NC(=O)c1cccnc1N2C1CC1` [Nevirapine (Viramune)], the inhibition at 10 µM was found to be 9.64%.

With `O=C(O)c1cccnc1` [Niacin (Nicotinic acid)], the inhibition at 10 µM is -0.509%. For `O=C(NCCO[N+](=O)[O-])c1cccnc1` [Nicorandil (Ikorel)] the value was 51%; for `NC(=O)c1cccnc1` [Nicotinamide (Niacinamide)], -2.77%. For `Cc1cn(-c2cc(NC(=O)c3ccc(C)c(Nc4nccc(-c5cccnc5)n4)c3)cc(C(F)(F)F)c2)cn1` [Nilotinib (AMN-107)] the value was -7.37%.

On to `COCCOC(=O)C1=C(C)NC(C)=C(C(=O)OC(C)C)C1c1cccc([N+](=O)[O-])c1` (centres unmarked) [Nimodipine (Nimotop)], for which the inhibition at 10 µM is -0.576%. For `COC(=O)C1=C(C)NC(C)=C(C(=O)OCC(C)C)C1c1ccccc1[N+](=O)[O-]` (centres unmarked) [Nisoldipine (Sular)] the value was -2.86%. In the case of `NC(=O)N/N=C/c1ccc([N+](=O)[O-])o1` [Nitrofurazone (Nitrofural)], the inhibition at 10 µM stood at 29.8%. For `CNC(=C[N+](=O)[O-])NCCSCc1csc(CN(C)C)n1` [Nizatidine], the inhibition at 10 µM was -2.67%.

With `COc1ccc(-c2cc(=O)c3c(OC)c(OC)c(OC)c(OC)c3o2)cc1OC` [Nobiletin (Hexamethoxyflavone)], the inhibition at 10 µM is -0.471%. For `CCn1cc(C(=O)O)c(=O)c2cc(F)c(N3CCNCC3)cc21` [Norfloxacin (Norxacin)] the value was 2.34%; for `CO[C@@H]1[C@@H](OC(N)=O)[C@@H](O)[C@H](Oc2ccc3c(O)c(NC(=O)c4ccc(O)c(CC=C(C)C)c4)c(=O)oc3c2C)OC1(C)C` [Novobiocin sodium (Albamycin)], -0.631%.
